# “And” between values parts separate entries of the source, which are not always exact repeats. Equal values may be shown once.
# What was measured:
# ERBB2 = ERBB2 (Homo sapiens, UniProt P04626); assay: biochemical; assay type: binding; conditions: 10000 nM; read-out: Percent Control
# JNK2 = JNK2 (Homo sapiens, UniProt P45984); assay: biochemical; assay type: binding; conditions: 10000 nM; read-out: Percent Control
# [1] = target: T1, Thromboxane A2 (TP) receptor (Homo sapiens, UniProt P21731); assay: Functional cAMP production assay, TP receptor; assay type: cell-based
# T1 sequence (P21731 1-343): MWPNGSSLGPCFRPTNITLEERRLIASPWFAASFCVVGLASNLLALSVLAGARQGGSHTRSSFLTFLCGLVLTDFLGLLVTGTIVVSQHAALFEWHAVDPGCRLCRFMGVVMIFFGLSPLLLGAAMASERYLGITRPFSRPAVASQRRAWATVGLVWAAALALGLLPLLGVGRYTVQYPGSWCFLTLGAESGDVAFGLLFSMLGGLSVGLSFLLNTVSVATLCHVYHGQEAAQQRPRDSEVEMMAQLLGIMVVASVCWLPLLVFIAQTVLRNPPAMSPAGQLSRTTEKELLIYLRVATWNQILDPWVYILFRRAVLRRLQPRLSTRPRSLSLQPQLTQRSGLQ
# BRAF(V600E) = BRAF(V600E) (Homo sapiens, UniProt P15056, V600E); assay: biochemical; assay type: binding; conditions: 10000 nM; read-out: Percent Control
# ABL1-nonphosphorylated = ABL1-nonphosphorylated (Homo sapiens, UniProt P00519); assay: biochemical; assay type: binding; conditions: 10000 nM; read-out: Percent Control
# 320 GPCRs [2] = target: 320 GPCRs (Homo sapiens, UniProt P49685); assay type: cell-based
# 320 GPCRs [3] = target: 320 GPCRs (Homo sapiens, UniProt P21731); assay type: cell-based
# 320 GPCRs [4] = target: 320 GPCRs (Homo sapiens, UniProt Q8IZF4); assay type: cell-based
# 320 GPCRs [5] = target: 320 GPCRs (Homo sapiens, UniProt Q96LB0); assay type: cell-based
# 320 GPCRs [6] = target: 320 GPCRs (Homo sapiens, UniProt P41595); assay type: cell-based
# 320 GPCRs [7] = target: 320 GPCRs (Homo sapiens, UniProt Q96P68); assay type: cell-based
# 320 GPCRs [8] = target: 320 GPCRs (Homo sapiens, UniProt P47211); assay type: cell-based
# 320 GPCRs [9] = target: 320 GPCRs (Homo sapiens, UniProt Q9HBX9); assay type: cell-based
# 320 GPCRs [10] = target: 320 GPCRs (Homo sapiens, UniProt Q7Z601); assay type: cell-based
# 320 GPCRs [11] = target: 320 GPCRs (Homo sapiens, UniProt P23945); assay type: cell-based
# 320 GPCRs [12] = target: 320 GPCRs (Homo sapiens, UniProt P25100); assay type: cell-based
# 320 GPCRs [13] = target: 320 GPCRs (Homo sapiens, UniProt Q16602); assay type: cell-based
# 320 GPCRs [14] = target: 320 GPCRs (Homo sapiens, UniProt O95136); assay type: cell-based
# 320 GPCRs [15] = target: 320 GPCRs (Homo sapiens, UniProt P30411); assay type: cell-based
# 320 GPCRs [16] = target: 320 GPCRs (Homo sapiens, UniProt O00155); assay type: cell-based
# 320 GPCRs [17] = target: 320 GPCRs (Homo sapiens, UniProt P51685); assay type: cell-based
# 320 GPCRs [18] = target: 320 GPCRs (Homo sapiens, UniProt Q8TDV0); assay type: cell-based
# 320 GPCRs [19] = target: 320 GPCRs (Homo sapiens, UniProt Q9NQS5); assay type: cell-based
# 320 GPCRs [20] = target: 320 GPCRs (Homo sapiens, UniProt P25090); assay type: cell-based
# 320 GPCRs [21] = target: 320 GPCRs (Homo sapiens, UniProt P08173); assay type: cell-based
# 320 GPCRs [22] = target: 320 GPCRs (Homo sapiens, UniProt Q969N4); assay type: cell-based
# 320 GPCRs [23] = target: 320 GPCRs (Homo sapiens, UniProt Q96RI0); assay type: cell-based
# 320 GPCRs [24] = target: 320 GPCRs (Homo sapiens, UniProt Q02643); assay type: cell-based
# 320 GPCRs [25] = target: 320 GPCRs (Homo sapiens, UniProt Q8TDS4); assay type: cell-based
# 320 GPCRs [26] = target: 320 GPCRs (Homo sapiens, UniProt P47775); assay type: cell-based
# 320 GPCRs [27] = target: 320 GPCRs (Homo sapiens, UniProt O14804); assay type: cell-based
# 320 GPCRs [28] = target: 320 GPCRs (Homo sapiens, UniProt P41146); assay type: cell-based
# 320 GPCRs [29] = target: 320 GPCRs (Homo sapiens, UniProt P13945); assay type: cell-based
# PAK2 = PAK2 (Homo sapiens, UniProt Q13177); assay: biochemical; assay type: binding; conditions: 10000 nM; read-out: Percent Control
# Text: (§1) Source data are provided as a Source Data file.
# MEK2 = MEK2 (Homo sapiens, UniProt P36507); assay: biochemical; assay type: binding; conditions: 10000 nM; read-out: Percent Control
# Text: as §1
# RET = RET (Homo sapiens, UniProt P07949); assay: biochemical; assay type: binding; conditions: 10000 nM; read-out: Percent Control
# Text: as §1
# PKAC-alpha = PKAC-alpha (Homo sapiens, UniProt P17612); assay: biochemical; assay type: binding; conditions: 10000 nM; read-out: Percent Control
# Text: as §1
# TGFBR1 = TGFBR1 (Homo sapiens, UniProt P36897); assay: biochemical; assay type: binding; conditions: 10000 nM; read-out: Percent Control
# Chain of 320 GPCRs (Homo sapiens, UniProt Q16602) (Q16602 23-461): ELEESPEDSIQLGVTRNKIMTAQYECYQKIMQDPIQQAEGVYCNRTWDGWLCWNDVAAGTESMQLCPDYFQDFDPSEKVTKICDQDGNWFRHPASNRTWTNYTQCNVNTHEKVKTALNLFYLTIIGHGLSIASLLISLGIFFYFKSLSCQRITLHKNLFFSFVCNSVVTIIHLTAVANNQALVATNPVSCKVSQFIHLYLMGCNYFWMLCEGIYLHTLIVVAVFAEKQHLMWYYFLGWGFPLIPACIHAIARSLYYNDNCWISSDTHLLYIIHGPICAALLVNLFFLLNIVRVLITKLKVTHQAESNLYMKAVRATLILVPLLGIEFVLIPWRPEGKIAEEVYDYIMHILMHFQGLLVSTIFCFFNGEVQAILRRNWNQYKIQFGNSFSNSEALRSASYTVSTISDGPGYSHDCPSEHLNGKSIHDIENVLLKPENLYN
# Chain of 320 GPCRs (Homo sapiens, UniProt P25090) (P25090 whole entry): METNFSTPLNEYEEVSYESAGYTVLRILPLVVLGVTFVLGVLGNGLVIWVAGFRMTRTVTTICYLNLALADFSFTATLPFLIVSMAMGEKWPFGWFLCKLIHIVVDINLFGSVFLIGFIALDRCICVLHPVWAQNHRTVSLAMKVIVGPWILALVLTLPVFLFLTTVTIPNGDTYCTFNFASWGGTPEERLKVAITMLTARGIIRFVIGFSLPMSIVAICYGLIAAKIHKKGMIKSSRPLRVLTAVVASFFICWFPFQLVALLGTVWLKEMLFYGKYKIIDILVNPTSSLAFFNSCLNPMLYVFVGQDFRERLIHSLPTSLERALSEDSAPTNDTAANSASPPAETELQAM
# Chain of 320 GPCRs (Homo sapiens, UniProt Q96RI0) (Q96RI0 18-385): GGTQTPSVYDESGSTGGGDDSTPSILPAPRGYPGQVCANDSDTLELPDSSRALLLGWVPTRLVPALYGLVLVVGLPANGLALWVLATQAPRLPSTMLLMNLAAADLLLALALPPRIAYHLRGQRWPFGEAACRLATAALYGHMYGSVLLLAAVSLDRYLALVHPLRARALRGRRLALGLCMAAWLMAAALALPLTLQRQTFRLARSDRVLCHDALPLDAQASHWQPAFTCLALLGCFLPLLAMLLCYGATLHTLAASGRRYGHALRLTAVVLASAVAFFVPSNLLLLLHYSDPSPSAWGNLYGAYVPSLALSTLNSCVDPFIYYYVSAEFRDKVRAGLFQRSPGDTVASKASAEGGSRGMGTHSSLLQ
# Chain of 320 GPCRs (Homo sapiens, UniProt P13945) (P13945 whole entry): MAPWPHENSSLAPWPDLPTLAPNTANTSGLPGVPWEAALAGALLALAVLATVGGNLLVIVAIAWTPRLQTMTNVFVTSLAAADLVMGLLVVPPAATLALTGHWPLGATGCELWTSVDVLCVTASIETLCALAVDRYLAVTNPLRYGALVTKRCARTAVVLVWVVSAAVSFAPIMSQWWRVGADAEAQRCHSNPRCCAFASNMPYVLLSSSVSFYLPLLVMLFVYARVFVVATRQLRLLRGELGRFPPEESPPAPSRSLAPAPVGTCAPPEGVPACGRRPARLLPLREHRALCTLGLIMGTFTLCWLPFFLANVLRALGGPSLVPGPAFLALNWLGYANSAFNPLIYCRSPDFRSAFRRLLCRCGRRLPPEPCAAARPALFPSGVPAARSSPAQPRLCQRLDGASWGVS
# Chain of 320 GPCRs (Homo sapiens, UniProt P41595) (P41595 whole entry): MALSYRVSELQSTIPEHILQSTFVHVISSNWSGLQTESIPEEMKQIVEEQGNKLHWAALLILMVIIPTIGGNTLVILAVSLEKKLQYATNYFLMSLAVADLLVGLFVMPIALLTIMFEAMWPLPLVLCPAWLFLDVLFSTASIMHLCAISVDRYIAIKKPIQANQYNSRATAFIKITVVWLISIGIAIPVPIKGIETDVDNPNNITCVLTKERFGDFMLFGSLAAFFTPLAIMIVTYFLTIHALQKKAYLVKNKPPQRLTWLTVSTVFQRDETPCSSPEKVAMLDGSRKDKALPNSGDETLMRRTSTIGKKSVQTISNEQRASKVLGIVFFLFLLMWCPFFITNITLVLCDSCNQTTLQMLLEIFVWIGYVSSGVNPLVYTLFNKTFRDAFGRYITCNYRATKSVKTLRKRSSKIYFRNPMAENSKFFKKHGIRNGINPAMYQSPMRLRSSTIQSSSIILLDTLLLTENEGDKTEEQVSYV
# Chain of 320 GPCRs (Homo sapiens, UniProt P08173) (P08173 whole entry): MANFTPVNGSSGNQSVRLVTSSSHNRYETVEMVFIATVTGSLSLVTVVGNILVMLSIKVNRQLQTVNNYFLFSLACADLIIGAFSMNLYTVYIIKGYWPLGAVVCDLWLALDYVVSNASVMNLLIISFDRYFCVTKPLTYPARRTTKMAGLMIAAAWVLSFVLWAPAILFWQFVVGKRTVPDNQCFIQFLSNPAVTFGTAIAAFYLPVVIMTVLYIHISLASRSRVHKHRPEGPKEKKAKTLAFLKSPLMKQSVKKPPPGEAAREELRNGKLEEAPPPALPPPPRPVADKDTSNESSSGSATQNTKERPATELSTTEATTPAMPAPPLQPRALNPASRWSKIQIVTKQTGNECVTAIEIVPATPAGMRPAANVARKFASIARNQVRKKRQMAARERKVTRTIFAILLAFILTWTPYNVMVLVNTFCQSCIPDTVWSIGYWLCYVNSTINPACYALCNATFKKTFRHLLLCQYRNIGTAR
# Chain of 320 GPCRs (Homo sapiens, UniProt P30411) (P30411 whole entry): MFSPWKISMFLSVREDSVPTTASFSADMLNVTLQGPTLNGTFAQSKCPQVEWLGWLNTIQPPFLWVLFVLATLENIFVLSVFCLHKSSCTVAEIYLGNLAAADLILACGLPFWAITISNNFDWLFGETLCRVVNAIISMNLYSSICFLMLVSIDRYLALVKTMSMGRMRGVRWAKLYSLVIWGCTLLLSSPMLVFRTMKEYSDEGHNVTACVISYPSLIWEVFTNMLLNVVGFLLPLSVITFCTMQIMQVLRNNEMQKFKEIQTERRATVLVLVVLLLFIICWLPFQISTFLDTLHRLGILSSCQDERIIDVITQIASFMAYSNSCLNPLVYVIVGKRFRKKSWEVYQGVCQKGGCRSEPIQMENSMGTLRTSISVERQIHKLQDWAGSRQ
# Chain of 320 GPCRs (Homo sapiens, UniProt Q9NQS5) (Q9NQS5 whole entry): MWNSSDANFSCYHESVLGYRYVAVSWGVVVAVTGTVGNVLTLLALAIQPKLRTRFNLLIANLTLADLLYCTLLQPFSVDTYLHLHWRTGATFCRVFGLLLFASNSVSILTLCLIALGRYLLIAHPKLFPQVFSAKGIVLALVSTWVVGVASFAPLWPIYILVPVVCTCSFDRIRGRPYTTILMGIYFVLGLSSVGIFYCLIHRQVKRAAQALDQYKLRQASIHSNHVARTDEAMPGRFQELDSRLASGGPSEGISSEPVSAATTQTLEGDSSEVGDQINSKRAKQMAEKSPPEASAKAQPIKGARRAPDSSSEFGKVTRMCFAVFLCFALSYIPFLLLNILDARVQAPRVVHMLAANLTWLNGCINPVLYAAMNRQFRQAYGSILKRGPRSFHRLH
# Chain of 320 GPCRs (Homo sapiens, UniProt P41146) (P41146 whole entry): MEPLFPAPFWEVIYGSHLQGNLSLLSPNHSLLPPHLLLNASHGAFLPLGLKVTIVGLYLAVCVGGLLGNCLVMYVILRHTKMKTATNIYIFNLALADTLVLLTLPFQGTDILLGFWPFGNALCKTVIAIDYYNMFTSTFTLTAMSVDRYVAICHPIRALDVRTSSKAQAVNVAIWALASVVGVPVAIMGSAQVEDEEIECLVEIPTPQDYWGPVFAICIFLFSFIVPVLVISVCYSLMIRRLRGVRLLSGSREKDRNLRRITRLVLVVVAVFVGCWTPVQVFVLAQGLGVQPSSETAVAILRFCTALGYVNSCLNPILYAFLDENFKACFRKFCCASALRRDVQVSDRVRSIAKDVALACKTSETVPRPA
# Chain of 320 GPCRs (Homo sapiens, UniProt P25100) (P25100 whole entry): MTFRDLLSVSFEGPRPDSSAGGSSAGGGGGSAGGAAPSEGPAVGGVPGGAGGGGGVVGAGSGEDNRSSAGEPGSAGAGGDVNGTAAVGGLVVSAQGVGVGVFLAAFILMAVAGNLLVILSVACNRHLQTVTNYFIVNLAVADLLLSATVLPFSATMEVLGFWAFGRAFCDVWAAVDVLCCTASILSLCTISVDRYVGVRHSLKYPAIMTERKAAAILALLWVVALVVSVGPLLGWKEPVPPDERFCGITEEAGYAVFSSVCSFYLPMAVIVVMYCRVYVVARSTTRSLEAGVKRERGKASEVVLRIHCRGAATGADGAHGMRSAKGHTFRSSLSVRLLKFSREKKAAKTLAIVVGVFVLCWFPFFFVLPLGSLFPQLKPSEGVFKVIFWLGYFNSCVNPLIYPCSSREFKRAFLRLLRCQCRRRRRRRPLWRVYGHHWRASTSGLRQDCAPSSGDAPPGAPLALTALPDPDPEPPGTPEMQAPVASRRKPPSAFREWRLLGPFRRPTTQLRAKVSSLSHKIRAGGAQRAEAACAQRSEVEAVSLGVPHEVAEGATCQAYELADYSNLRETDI
# Chain of 320 GPCRs (Homo sapiens, UniProt Q96LB0) (Q96LB0 whole entry): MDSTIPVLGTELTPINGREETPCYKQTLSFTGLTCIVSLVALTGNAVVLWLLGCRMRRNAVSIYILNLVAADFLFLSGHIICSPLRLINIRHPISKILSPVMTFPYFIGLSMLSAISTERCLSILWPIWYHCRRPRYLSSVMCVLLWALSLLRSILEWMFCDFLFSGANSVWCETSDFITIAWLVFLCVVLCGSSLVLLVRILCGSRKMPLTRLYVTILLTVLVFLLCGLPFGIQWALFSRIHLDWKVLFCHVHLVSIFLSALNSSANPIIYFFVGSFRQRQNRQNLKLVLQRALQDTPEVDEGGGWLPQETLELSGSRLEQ
# Chain of 320 GPCRs (Homo sapiens, UniProt P47211) (P47211 whole entry): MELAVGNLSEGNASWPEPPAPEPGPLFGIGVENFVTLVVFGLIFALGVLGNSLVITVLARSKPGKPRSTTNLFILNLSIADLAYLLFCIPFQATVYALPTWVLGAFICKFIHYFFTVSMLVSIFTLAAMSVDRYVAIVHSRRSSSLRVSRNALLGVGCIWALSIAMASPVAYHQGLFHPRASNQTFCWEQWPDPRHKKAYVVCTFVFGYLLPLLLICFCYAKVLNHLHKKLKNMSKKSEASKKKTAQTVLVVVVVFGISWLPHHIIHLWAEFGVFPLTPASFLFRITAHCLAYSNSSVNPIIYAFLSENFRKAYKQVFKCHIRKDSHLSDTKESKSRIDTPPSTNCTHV
compound,measurement,setting,value
"O=C(O)C1CCC2(CC1)CC(Nc1ncnc3[nH]c4c(F)cccc4c13)C2 (centres unmarked) [Compound 74, OC(=O)C1CCC2(CC(C2)NC=3N=CN=C4NC=5C(F)=CC=CC5C34)CC1]",remaining activity at 10 µM,ERBB2,49%
same,remaining activity at 10 µM,JNK2,41%
same,off-target activity at thromboxane A2 receptor,[1],no off-target activities
same,remaining activity at 10 µM,BRAF(V600E),84%
same,remaining activity at 10 µM,ABL1-nonphosphorylated,67%
same,RLU (Fold over Basal),320 GPCRs [2],0.4 Fold over Basal and 0.5 Fold over Basal and 0.6 Fold over Basal and 0.7 Fold over Basal
same,RLU (Fold over Basal),320 GPCRs [3],1.2 Fold over Basal and 1.1 Fold over Basal and 0.7 Fold over Basal
same,RLU (Fold over Basal),320 GPCRs [4],0.8 Fold over Basal and 1.1 Fold over Basal and 1.2 Fold over Basal
same,RLU (Fold over Basal),320 GPCRs [5],1 Fold over Basal and 1.4 Fold over Basal and 0.9 Fold over Basal
same,RLU (Fold over Basal),320 GPCRs [6],0.8 Fold over Basal and 0.9 Fold over Basal and 0.7 Fold over Basal and 1 Fold over Basal
same,RLU (Fold over Basal),320 GPCRs [7],0.3 Fold over Basal
same,RLU (Fold over Basal),320 GPCRs [8],0.8 Fold over Basal and 0.7 Fold over Basal and 0.9 Fold over Basal and 0.6 Fold over Basal
same,RLU (Fold over Basal),320 GPCRs [9],0.7 Fold over Basal and 0.9 Fold over Basal and 0.5 Fold over Basal
same,RLU (Fold over Basal),320 GPCRs [10],0.6 Fold over Basal and 1 Fold over Basal
same,RLU (Fold over Basal),320 GPCRs [11],1 Fold over Basal and 0.6 Fold over Basal
same,RLU (Fold over Basal),320 GPCRs [12],1.5 Fold over Basal and 1.7 Fold over Basal and 1.6 Fold over Basal and 0.9 Fold over Basal
same,RLU (Fold over Basal),320 GPCRs [13],0.9 Fold over Basal and 1.2 Fold over Basal and 1.4 Fold over Basal and 1.1 Fold over Basal
same,RLU (Fold over Basal),320 GPCRs [14],0.3 Fold over Basal and 0.2 Fold over Basal
same,RLU (Fold over Basal),320 GPCRs [15],0.4 Fold over Basal and 0.5 Fold over Basal and 0.6 Fold over Basal
same,RLU (Fold over Basal),320 GPCRs [16],1.1 Fold over Basal and 1 Fold over Basal and 0.7 Fold over Basal and 0.6 Fold over Basal
same,RLU (Fold over Basal),320 GPCRs [17],1.6 Fold over Basal and 1.2 Fold over Basal and 0.8 Fold over Basal and 1.5 Fold over Basal
same,RLU (Fold over Basal),320 GPCRs [18],0.9 Fold over Basal and 0.8 Fold over Basal and 1.1 Fold over Basal
same,RLU (Fold over Basal),320 GPCRs [19],1 Fold over Basal and 0.8 Fold over Basal and 1.1 Fold over Basal
same,RLU (Fold over Basal),320 GPCRs [20],1.2 Fold over Basal and 1.5 Fold over Basal and 1.6 Fold over Basal and 0.9 Fold over Basal
same,RLU (Fold over Basal),320 GPCRs [21],1.1 Fold over Basal and 1 Fold over Basal and 1.4 Fold over Basal and 1.2 Fold over Basal
same,RLU (Fold over Basal),320 GPCRs [22],0.7 Fold over Basal and 0.5 Fold over Basal
same,RLU (Fold over Basal),320 GPCRs [23],1 Fold over Basal and 0.7 Fold over Basal and 1.2 Fold over Basal
same,RLU (Fold over Basal),320 GPCRs [24],0.7 Fold over Basal and 0.6 Fold over Basal and 0.8 Fold over Basal
same,RLU (Fold over Basal),320 GPCRs [25],1.1 Fold over Basal and 1.6 Fold over Basal and 1.9 Fold over Basal and 1.5 Fold over Basal
same,RLU (Fold over Basal),320 GPCRs [26],0.6 Fold over Basal and 1 Fold over Basal
same,RLU (Fold over Basal),320 GPCRs [27],1.3 Fold over Basal and 0.9 Fold over Basal and 1.4 Fold over Basal and 0.8 Fold over Basal
same,RLU (Fold over Basal),320 GPCRs [28],0.8 Fold over Basal and 0.7 Fold over Basal and 1.3 Fold over Basal and 0.9 Fold over Basal
same,RLU (Fold over Basal),320 GPCRs [29],1.4 Fold over Basal and 1.2 Fold over Basal and 1.1 Fold over Basal and 1.3 Fold over Basal
same,remaining activity at 10 µM,PAK2,66%
same,remaining activity at 10 µM,MEK2,23%
same,remaining activity at 10 µM,RET,5.9%
same,remaining activity at 10 µM,PKAC-alpha,99%
same,remaining activity at 10 µM,TGFBR1,54%

# Reference: article PMC10700596 (Nature Communications, 2023)
